Broadly, the IC50 is the point on the concentration scale where inhibition reaches its midpoint.

Among the data in publication PMC7535926, “Serine phosphorylation regulates the P-type potassium pump KdpFABC” (eLife, 2020) are IC50 values, retold here.

Molecules are shown by their SMILES.

This assay has as its target T1, KdpFABC (WT) (Escherichia coli, UniProt P03960).
T1 construct: gene kdpB; full-length kdpFABC operon on plasmid pSD107 (native promoter), 8x His tag at C-terminus of KdpC; expressed in E. coli TK2499; purified in decyl maltoside; KdpB Ser162 phosphate removed with lambda protein phosphatase; Potassium-transporting ATPase KdpC subunit; Potassium-transporting ATPase KdpF subunit
The assay can be described thus: coupled-enzyme ATPase assay (pyruvate kinase / lactate dehydrogenase). In kind it is biochemical.

T1 sequence (P03960 whole entry): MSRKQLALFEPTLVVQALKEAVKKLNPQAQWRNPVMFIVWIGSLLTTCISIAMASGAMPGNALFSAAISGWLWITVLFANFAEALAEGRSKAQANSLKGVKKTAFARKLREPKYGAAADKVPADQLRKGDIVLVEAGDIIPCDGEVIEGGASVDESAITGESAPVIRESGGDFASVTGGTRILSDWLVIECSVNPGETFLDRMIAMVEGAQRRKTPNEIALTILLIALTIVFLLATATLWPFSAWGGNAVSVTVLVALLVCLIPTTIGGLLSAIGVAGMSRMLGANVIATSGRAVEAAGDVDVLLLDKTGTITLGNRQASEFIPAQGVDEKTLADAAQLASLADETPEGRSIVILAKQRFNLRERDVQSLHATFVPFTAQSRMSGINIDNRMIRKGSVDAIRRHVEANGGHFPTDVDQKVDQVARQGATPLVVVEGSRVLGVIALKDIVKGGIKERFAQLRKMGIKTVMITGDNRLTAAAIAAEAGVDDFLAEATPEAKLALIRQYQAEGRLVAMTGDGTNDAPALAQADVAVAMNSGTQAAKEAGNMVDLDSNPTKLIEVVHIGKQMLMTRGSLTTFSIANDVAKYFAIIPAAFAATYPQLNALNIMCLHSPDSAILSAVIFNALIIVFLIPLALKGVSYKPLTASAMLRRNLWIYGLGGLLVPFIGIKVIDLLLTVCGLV
T1 sequence (P03959 whole entry partner): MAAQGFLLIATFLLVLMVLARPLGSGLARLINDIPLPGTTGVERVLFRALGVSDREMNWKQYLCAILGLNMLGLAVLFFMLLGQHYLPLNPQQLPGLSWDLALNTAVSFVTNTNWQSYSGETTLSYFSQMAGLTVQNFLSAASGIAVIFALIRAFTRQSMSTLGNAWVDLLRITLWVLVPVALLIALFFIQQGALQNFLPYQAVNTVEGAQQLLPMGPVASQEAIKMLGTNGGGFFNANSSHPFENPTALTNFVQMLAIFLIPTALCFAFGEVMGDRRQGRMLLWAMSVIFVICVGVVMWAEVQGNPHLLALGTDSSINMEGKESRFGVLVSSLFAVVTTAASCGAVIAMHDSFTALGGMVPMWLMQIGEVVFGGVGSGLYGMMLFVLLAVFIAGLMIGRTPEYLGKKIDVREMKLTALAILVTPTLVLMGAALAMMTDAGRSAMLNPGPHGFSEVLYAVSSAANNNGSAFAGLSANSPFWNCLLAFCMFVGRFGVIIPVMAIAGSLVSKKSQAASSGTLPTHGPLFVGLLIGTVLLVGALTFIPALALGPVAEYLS
T1 sequence (P03961 whole entry partner): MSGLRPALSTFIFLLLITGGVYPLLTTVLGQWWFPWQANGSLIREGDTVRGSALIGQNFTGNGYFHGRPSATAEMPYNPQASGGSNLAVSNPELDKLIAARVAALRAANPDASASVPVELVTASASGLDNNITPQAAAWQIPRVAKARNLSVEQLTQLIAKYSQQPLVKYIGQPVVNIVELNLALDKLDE
T1 sequence (P36937 whole entry partner): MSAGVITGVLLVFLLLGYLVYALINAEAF

In turn, `[O]=[V]([OH])([OH])[OH]` [orthovanadate] came in with an IC50 of 8.4 µM.
